# Test results from PubChem BioAssay (NCI).
# Values joined by “and” are separate entries in the source; they are usually repeats but may differ in a detail not shown here. Identical values can stand only once.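 Interpolation was linear, between the two tested concentrations surrounding the appropriate level; five concentrations were tested over 48 hours in 96-well plates. The concentration for 50% growth inhibition is given as GI50. At the TGI there is no net growth.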 Active and inactive are the calls of the source. Cut-off read from the data, not from the text of the source: active = GI50 below about 0.43 µM; inactive = the rest.
# What was measured:
# Test in all cases: NCI tumour cell line growth inhibition, 48 h
# KM20L2 colon = tested on: KM20L2 colon
# SF-539 CNS = tested on: SF-539 CNS
# HOP-92 NSCLC = tested on: HOP-92 NSCLC
# OVCAR-8 ovarian = tested on: OVCAR-8 ovarian
# LOX IMVI melanoma = tested on: LOX IMVI melanoma
# NCI-H460 lung = tested on: NCI-H460 lung
# NCI-H226 lung = tested on: NCI-H226 lung
# M19-MEL melanoma = tested on: M19-MEL melanoma
# HOP-18 NSCLC = tested on: HOP-18 NSCLC
Compound,TGI (KM20L2 colon),TGI (SF-539 CNS),TGI (HOP-92 NSCLC),TGI (OVCAR-8 ovarian),TGI (LOX IMVI melanoma),TGI (NCI-H460 lung),TGI (NCI-H226 lung),TGI (M19-MEL melanoma),TGI (HOP-18 NSCLC) [µM],outcome (KM20L2 colon),GI50 (SF-539 CNS),GI50 (HOP-92 NSCLC),GI50 (OVCAR-8 ovarian),GI50 (LOX IMVI melanoma),GI50 (NCI-H460 lung),GI50 (NCI-H226 lung),GI50 (M19-MEL melanoma),GI50 (KM20L2 colon) [µM],GI50 (HOP-18 NSCLC) [µM]
CC(C)(c1ccccc1)c1ccc(OC#N)cc1,> 100 µM,> 100 µM,> 100 µM,> 100 µM,> 58.9 µM,> 59.1 µM,> 100 µM,> 100 µM,> 100,,,,,,,,,,
COc1ccc(OCC(=O)O)c(C(=O)CCC(=O)O)c1,,> 100 µM,> 100 µM,> 100 µM,> 100 µM,> 100 µM,> 100 µM,> 100 µM,,,,,,,,,,,
C=C(c1ccccc1)[C@@]1(O)CC[C@@H]1N(CC#N)Cc1ccccc1,> 100 µM,63.1 µM,34.9 µM,52.3 µM,34.6 µM,> 100 µM,> 100 µM,57.1 µM,28,,,,,,,,,,
O=C(NC12CC3CC(CC(C3)C1)C2)C(=O)c1c[nH]c2ccccc12,19.7 µM,26.7 µM,28.8 µM,,25.8 µM,25.7 µM,,36.2 µM,,,,,,,,,,,
N#CC1(C#N)C(C#N)(C#N)C12CCCCCC2,32 µM,18 µM,29.4 µM,26.7 µM,32.3 µM,> 66.5 µM,47.5 µM,47.9 µM,30.3,,,,,,,,,,
COC(C)(C)C/C=C/C(C)=C/C=C/C(C)=C\C=C\C(C)=C\C=C\C=C(C)\C=C\C=C(C)\C=C\C=C(C)\C=C\CC(C)(C)OC,,> 150 µg/mL,> 150 µg/mL,> 150 µg/mL,> 150 µg/mL,> 150 µg/mL,> 150 µg/mL,> 150 µg/mL,,inactive,> 150 µg/mL,> 150 µg/mL,> 150 µg/mL,> 150 µg/mL,> 150 µg/mL,> 150 µg/mL,> 150 µg/mL,,
COc1cc2c(cc1OC)/C(=C\c1ccccc1N)C(=O)OC2,43.4 µM,31 µM,27.6 µM,,4.18 µM,33.5 µM,,39.2 µM,26.8,,,,,,,,,,
COc1cccc(NC(=O)/C(Cc2nc3ccccc3nc2C)=N/NC(=O)C[n+]2ccccc2)c1,> 100 µM,> 100 µM,,> 100 µM,> 100 µM,> 100 µM,> 100 µM,> 100 µM,> 100,,,,,,,,,,
Cc1ccc(O)c(NC(=O)c2ccc(CNc3ccnc(C(F)(F)F)c3)cc2)c1,,20.9 µM,29.8 µM,> 100 µM,31.4 µM,21.9 µM,38.8 µM,,,,4.16 µM,5110 nM,15.9 µM,5.64 µM,3700 nM,4520 nM,,,
COc1ccc2c(c1)C(=O)c1c-2n(CCCI)c(=O)c2cc([N+](=O)[O-])ccc12,,0.338 µM and 0.376 µM,,50 µM and > 100 µM,0.763 µM and 1.01 µM,,6.02 µM and 14.7 µM,,,,0.0962 µM and 0.0577 µM,73.8 nM and 715 nM,0.266 µM and 0.338 µM,0.0743 µM and 0.0432 µM,11.7 nM and 29.6 nM,671 nM and 890 nM,,,
O=C1c2ccccc2-c2c1c1ccccc1c(=O)n2CCCn1ccnc1,,8.06 µM,6.45 µM,2.39 µM,4.33 µM,10.4 µM,3.04 µM,,,,2.33 µM,1830 nM,0.87 µM,0.924 µM,1170 nM,1350 nM,,,
CC(C)OP(=O)(NC(=S)c1ccccc1)OC(C)C,> 100 µM,> 100 µM,> 100 µM,> 100 µM,> 100 µM,> 100 µM,> 100 µM,> 100 µM,,,,,,,,,,,
CCNC(=O)O[C@H]1CN[C@H](C#Cc2cc3ncnc(Nc4ccc(OCc5cccc(F)c5)c(Cl)c4)c3s2)C1,,> 18.4 µM,11.4 µM,> 25 µM,> 25 µM,> 25 µM,> 21.1 µM,,,,5.77 µM,830 nM,6.25 µM,8.12 µM,6840 nM,7090 nM,,,
N#CC1CCCCCCCCCCC(=O)N(CCCl)C1=O (centres undefined),> 100 µM,> 100 µM,> 100 µM,> 100 µM,> 100 µM,> 100 µM,,> 100 µM,,,,,,,,,,,
CC(C)CC(NC(=O)OC(C)(C)C)C(=O)Nc1ccc(Nc2nc(F)nc(-c3c4ccccc4cn3C)n2)cc1 (centres undefined),> 100 µM,> 100 µM,> 100 µM,> 100 µM,> 100 µM,> 100 µM,> 100 µM,> 100 µM,> 100,,,,,,,,,,
CN(C)CC/[N+]([O-])=C(/c1ccccc1)C12CC3CC(CC(C3)C1)C2,24.5 µM,30.8 µM,28.8 µM,31.7 µM,31.2 µM,35.1 µM,27.5 µM,27.2 µM,35.6,,,,,,,,,,
S=P(N1CC1)(N1CC1)N1CC1,62 µM and 464 µM,49 µM and 223 µM and 182 µM,50.2 µM and 376 µM and 345 µM,58.5 µM and 523 µM and 323 µM,42 µM and 307 µM and 294 µM,31.7 µM and 195 µM,,63 µM and 438 µM,640,,11.4 µM and 23.3 µM,25200 nM and 168000 nM,20.1 µM and 93.7 µM,7.14 µM and 54.5 µM,588 nM,,25.7 µM,30,41.5
C=CCC1C(=O)CC2(C)CC(=O)C(CC=C)C12C (centres undefined),> 100 µM,> 100 µM,> 100 µM,> 100 µM,> 100 µM,> 100 µM,> 100 µM,> 100 µM,> 100,,,,,,,,,,
O=C1CCc2c(sc3[nH]c(=S)n(Cc4ccc(Cl)cc4)c(=O)c23)C1,,1.63 µM,0.816 µM,> 100 µM,5.4 µM,3.7 µM,14.5 µM,,,,0.356 µM,196 nM,0.468 µM,0.41 µM,377 nM,1990 nM,,,
Cc1cc(C)cc(NC(N)=S)c1,> 100 µM,> 100 µM,> 100 µM,> 100 µM,89.5 µM,> 100 µM,> 100 µM,> 100 µM,,,,,,,,,,,
